Test results: patent publication EP3478687B1 (Daewoong Pharmaceutical Co., Ltd., priority 2016, dated 2018)
Counter-ions that a name gives are not always drawn.

How the values were obtained:
[1] = target: T1, Recombinant purified human JAK3 (Homo sapiens, UniProt P52333); test: JAK3 kinase inhibitory activity, ADP-Glo kinase assay (Promega V9441); format: biochemical; details: for IC50: ATP 5 uM, 4 ng JAK3 per reaction, 1 hour 30 °C, chemiluminescence
T1 construct: purchased Promega V9441
T1 sequence (P52333 1-1124): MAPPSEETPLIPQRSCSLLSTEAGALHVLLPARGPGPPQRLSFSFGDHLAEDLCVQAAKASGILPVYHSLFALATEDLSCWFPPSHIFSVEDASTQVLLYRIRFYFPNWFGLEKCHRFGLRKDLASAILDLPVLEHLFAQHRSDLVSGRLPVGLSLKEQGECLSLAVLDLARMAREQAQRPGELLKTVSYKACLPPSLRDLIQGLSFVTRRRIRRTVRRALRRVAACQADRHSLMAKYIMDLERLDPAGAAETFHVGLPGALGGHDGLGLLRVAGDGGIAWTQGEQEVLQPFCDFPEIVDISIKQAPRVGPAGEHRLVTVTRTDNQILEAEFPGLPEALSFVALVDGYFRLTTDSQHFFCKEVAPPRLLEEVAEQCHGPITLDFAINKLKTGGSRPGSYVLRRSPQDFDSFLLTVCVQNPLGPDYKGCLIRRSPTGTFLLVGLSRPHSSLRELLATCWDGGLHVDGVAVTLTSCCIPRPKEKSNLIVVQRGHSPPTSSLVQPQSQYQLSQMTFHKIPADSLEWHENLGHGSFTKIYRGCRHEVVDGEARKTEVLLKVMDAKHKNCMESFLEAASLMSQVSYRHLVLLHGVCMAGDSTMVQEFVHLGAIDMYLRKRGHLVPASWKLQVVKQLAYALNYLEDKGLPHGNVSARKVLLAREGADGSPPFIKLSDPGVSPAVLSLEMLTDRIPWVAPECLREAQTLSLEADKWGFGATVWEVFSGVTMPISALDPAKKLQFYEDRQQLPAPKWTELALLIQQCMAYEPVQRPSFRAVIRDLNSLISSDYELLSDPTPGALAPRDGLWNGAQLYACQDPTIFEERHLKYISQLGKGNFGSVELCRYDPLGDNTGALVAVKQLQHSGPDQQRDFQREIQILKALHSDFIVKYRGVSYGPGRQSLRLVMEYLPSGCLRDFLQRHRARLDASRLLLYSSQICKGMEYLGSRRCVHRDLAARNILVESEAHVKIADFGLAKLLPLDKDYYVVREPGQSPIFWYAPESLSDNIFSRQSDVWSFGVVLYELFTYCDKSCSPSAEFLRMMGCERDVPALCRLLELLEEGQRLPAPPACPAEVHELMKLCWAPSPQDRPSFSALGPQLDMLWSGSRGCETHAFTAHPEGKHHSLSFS
Procedure: (§1) JAK3 and BTK kinase inhibitory activities were measured for the compounds prepared in the above Examples through in vitro analysis on the ADP Glow (Glo) platform.
(§2) Specifically, the inhibitory activities of JAK3 and BTK kinase were measured using a JAK3 kinase assay kit (Promega, V9441) and a BTK kinase assay kit (Promega, V9071) which were purchased from Promega. Recombinant purified human JAK3 and BTK were diluted with 1 x kinase reaction buffer (JAK3: 40 mM Tris-Cl, pH 7.5, 20 mM MgCh, 0.1 mg/mL BSA and 50 uM DTT / BTK: 40 mM Tris-Cl, pH 7.5, 20 mM MgCl2, 0.1 mg/mL BSA, 2 mM MnCl2 and 50 uM DTT) and added to a 96 well plate (JAK3: final concentration of 4 ng per reaction/BTK: final concentration of 8 ng per reaction). The compounds were treated so as to be finally a 1% DMSO aqueous solution, and a substrate cocktail containing ATP (JAK3: final concentration of 5 uM / BTK: final concentration of 10 uM) and 0.2 µg/µL of Poly(Glu4, Tyr1) peptide (JAK3 and BTK final concentration) in the total 25 µL reactants was added to a 96-well plate to initiate enzymatic reaction. After incubation (30 °C) for 1 hour, equivalent volume (25 µL per reaction) of ADP Glo was added and incubated (30 °C) for 40 minutes at room temperature. Then, a kinase detection reagent (50 µL per reaction) was added and incubated (30 °C) for 30 minutes at room temperature. The kinase activity was measured by chemiluminescence according to the instructions of ADP Glo kinase assay kit, and the inhibitory activity of the compounds according to the present invention was calculated. For the analysis of the results of each compound, Microsoft Excel was used, and IC50 values were calculated by SigmaPlot software.

[2] = target: T2, Recombinant purified human BTK (Homo sapiens, UniProt Q06187); test: BTK kinase inhibitory activity, ADP-Glo kinase assay (Promega V9071); format: biochemical; details: for IC50: ATP 10 uM, 8 ng BTK per reaction, 1 hour 30 °C, chemiluminescence
T2 construct: purchased Promega V9071
Procedure: as §1, §2

T2 sequence (Q06187 whole entry): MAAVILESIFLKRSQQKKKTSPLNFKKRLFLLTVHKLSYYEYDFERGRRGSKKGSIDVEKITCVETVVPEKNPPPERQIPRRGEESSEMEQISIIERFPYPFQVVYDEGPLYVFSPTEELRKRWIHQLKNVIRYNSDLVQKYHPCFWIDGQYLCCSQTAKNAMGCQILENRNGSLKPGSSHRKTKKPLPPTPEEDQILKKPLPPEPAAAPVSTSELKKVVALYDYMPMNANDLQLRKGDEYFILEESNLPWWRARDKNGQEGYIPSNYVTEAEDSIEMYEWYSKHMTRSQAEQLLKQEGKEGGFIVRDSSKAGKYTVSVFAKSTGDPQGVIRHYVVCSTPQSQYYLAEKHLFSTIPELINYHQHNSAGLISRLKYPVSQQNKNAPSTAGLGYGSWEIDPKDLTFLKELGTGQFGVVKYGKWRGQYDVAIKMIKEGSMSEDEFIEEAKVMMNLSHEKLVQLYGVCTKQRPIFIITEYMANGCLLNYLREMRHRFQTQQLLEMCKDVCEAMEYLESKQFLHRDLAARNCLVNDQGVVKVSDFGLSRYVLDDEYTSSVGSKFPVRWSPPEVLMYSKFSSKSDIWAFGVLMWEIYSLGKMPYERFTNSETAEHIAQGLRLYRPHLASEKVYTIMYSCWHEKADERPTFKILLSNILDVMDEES

SMILES | IC50 [1] [nM] | IC50 [2] [nM] | inhibition at 0.1 µM ([1]; @100nM compound, printed in the JAK3 IC50 column) [%] | inhibition at 0.1 µM ([2]; @100nM compound) [%]
CCn1cc(Nc2nc(S[C@@H]3CCCN(C(=O)/C(C#N)=C/C(C)C)C3)c3cc[nH]c3n2)cn1 [Example 174, (R,E)-2-(3-((2-((1-ethyl-1H-pyrazol-4-yl)amino)-7H-pyrrolo[2,3-d]pyrimidin-4-yl)thio)piperidine-1-carbonyl)-4-methylpent-2-enenitrile] | 0.7 | 2 |  | 
C=CC(=O)N1CCC[C@@H](Nc2nc(Nc3cnn(CC)c3)nc3[nH]nc(Cl)c23)C1 [Example 91, (R)-1-(3-((3-chloro-6-((1-ethyl-1H-pyrazol-4-yl)amino)-1H-pyrazolo[3,4-d]pyrimidin-4-yl)amino)piperidin-1-yl)prop-2-en-1-one hydrochloride] | 1.1 | 1.1 |  | 
C=CC(=O)N1CCC[C@@H](Nc2nc(Nc3cnn(CC(F)(F)F)c3)nc3[nH]nc(Cl)c23)C1 [Example 56, (R)-1-(3-(3-chloro-6-(1-(2,2,2-trifluoroethyl)-1H-pyrazol-4-ylamino)-1H-pyrazolo[3,4-d]pyrimidin-4-ylamino)piperidin-1-yl)prop-2-en-1-one] | 0.3 | 1.8 |  | 
C=CC(=O)N1CCC[C@@H](Nc2nc(Nc3ccc(N4CCOCC4)cc3)nc3[nH]ccc23)C1 [Example 4, (R)-1-(3-(2-(4-morpholinophenylamino)-7H-pyrrolo[2,3-d]pyrimidin-4-ylamino)piperidin-1-yl)prop-2-en-1-one] | 6.9 | 26.7 |  | 
C=CC(=O)N1CCC[C@@H](Nc2nc(Nc3cc(C)ns3)nc3[nH]ccc23)C1 [Example 75, (R)-1-(3-((2-((3-methylisothiazol-5-yl)amino)-7H-pyrrolo[2,3-d]pyrimidin-4-yl)amino)piperidin-1-yl)prop-2-en-1-one] | 0.2 | 4.1 |  | 
C=CC(=O)N1CCC[C@@H](Nc2nc(Nc3cnn(CC(F)F)c3)nc3[nH]nc(C)c23)C1 [Example 184, (R)-1-(3-((6-((1-(2,2-difluoroethyl)-1H-pyrazol-4-yl)amino)-3-methyl-1H-pyrazolo[3,4-d]pyrimidin-4-yl)amino)piperidin-1-yl)prop-2-en-1-one] | 4.4 | 1.4 |  | 
C=CC(=O)N1CCC[C@@H](Nc2nc(Nc3cnn(C4CC4)c3)nc3[nH]cc(C#N)c23)C1 [Example 89, (R)-4-((1-acryloylpiperidin-3-yl)amino)-2-((1-cyclopropyl-1H-pyrazol-4-yl)amino)-7H-pyrrolo[2,3-d]pyrimidine-5-carbonitrile] | 0.138 | 0.864 |  | 
C=CC(=O)N1CCC[C@@H](Nc2nc(Nc3cnn(CCN(CC)CC)c3)nc3[nH]ncc23)C1 [Example 145, (R)-1-(3-((6-((1-(2-(diethylamino)ethyl)-1H-pyrazol-4-yl)amino)-1H-pyrazolo[3,4-d]pyrimidin-4-yl)amino)piperidin-1-yl)prop-2-en-1-one] | 1.7 | 1.4 |  | 
C=CC(=O)N1CCC[C@@H](Sc2nc(Nc3cnn(CCC)c3)nc3[nH]nc(Cl)c23)C1 [Example 115, (R)-1-(3-((3-chloro-6-((1-propyl-1H-pyrazol-4-yl)amino)-1H-pyrazolo[3,4-d]pyrimidin-4-yl)thio)piperidin-1-yl)prop-2-en-1-one] | 1.7 | 2 |  | 
C=CC(=O)N1CCC[C@@H](Oc2nc(Nc3cnn(CC)c3)nc3[nH]cc(C#N)c23)C1 [Example 150, (R)-4-((1-acryloylpiperidin-3-yl)oxy)-2-((1-ethyl-1H-pyrazol-4-yl)amino)-7H-pyrrolo[2,3-d]pyrimidine-5-carbonitrile] | 0.3 | 1.6 |  | 
C=CC(=O)N1CCC[C@@H](N(C)c2nc(Nc3cnn(CC)c3)nc3[nH]ccc23)C1 [Example 101, (R)-1-(3-((2-((1-ethyl-1H-pyrazol-4-yl)amino)-7H-pyrrolo[2,3-d]pyrimidin-4-yl)(methyl)amino)piperidin-1-yl)prop-2-en-1-one] | 1.8 | 7.4 |  | 
C=CC(=O)N1CCC[C@@H](Nc2nc(Nc3cnoc3C)nc3[nH]nc(Cl)c23)C1 [Example 117] | > 400 | 81.2 |  | 

Continued, values first:

IC50 [1] [nM] | IC50 [2] [nM] | inhibition at 0.1 µM ([1]; @100nM compound, printed in the JAK3 IC50 column) [%] | inhibition at 0.1 µM ([2]; @100nM compound) [%] | SMILES
 |  | 17.3 | 8.9 | C=CC(=O)N1CCC[C@@H](Nc2nc(Nc3cn(C)nc3C)nc3[nH]ccc23)C1 [Example 22, (R)-1-(3-(2-(1,3-dimethyl-1H-pyrazol-4-ylamino)-7H-pyrrolo[2,3-d]pyrimidin-4-ylamino)piperidin-1-yl)prop-2-en-1-one]
14.6 | 5.8 |  |  | C=CC(=O)N1CC[C@@H](C)[C@@H](Nc2nc(Nc3cnn(C)c3)nc3[nH]nc(Cl)c23)C1 [Example 128]
17.7 | 1.8 |  |  | C=CC(=O)N1CC[C@@H](C)[C@@H](Nc2nc(Nc3cnn(CC#N)c3)nc3[nH]nc(SC)c23)C1 [Example 134, 2-(4-((4-(((3R,4R)-1-acryloyl-4-methylpiperidin-3-yl)amino)-3-(methylthio)-1H-pyrazolo[3,4-d]pyrimidin-6-yl)amino)-1H-pyrazol-1-yl)acetonitrile]
30.2 | 2.2 |  |  | CCn1cc(Nc2nc(S[C@@H]3CCCN(C(=O)/C(C#N)=C/C4CC4)C3)c3c(Cl)n[nH]c3n2)cn1 [Example 181]
32.5 | 11.1 |  |  | C=CC(=O)N1CCC[C@@H](N(C)c2nc(Nc3cnoc3)nc3[nH]nc(Cl)c23)C1 [Example 119]
0.3 | 1.6 |  |  | C=CC(=O)N1CCC[C@@H](Oc2nc(Nc3cnn(C4CC4)c3)nc3[nH]cc(C#N)c23)C1 [Example 148, (R)-4-((1-acryloylpiperidin-3-yl)oxy)-2-((1-cyclopropyl-1H-pyrazol-4-yl)amino)-7H-pyrrolo[2,3-d]pyrimidine-5-carbonitrile]
18 | 4.3 |  |  | CCn1cc(Nc2nc(N(C)[C@@H]3CCCN(C(=O)/C(C#N)=C/C(C)C)C3)c3c(Cl)n[nH]c3n2)cn1 [Example 168]
15.1 | 2.1 |  |  | C=CC(=O)N1CCC[C@@H](Nc2nc(Nc3cnn(CC)c3)nc3[nH]nc(C)c23)C1 [Example 185, (R)-1-(3-((6-((1-ethyl-1H-pyrazol-4-yl)amino)-3-methyl-1H-pyrazolo [3,4-d]pyrimidin-4-yl)amino)piperidin-1-yl)prop-2-en-1-one]
0.9 | 1.6 |  |  | CCn1cc(Nc2nc(N[C@@H]3CCCN(C(=O)/C(C#N)=C/C(C)C)C3)c3cc[nH]c3n2)cn1 [Example 172, (R,E)-2-(3-((2-((1-ethyl-1H-pyrazol-4-yl)amino)-7H-pyrrolo[2,3-d]pyrimidin-4-yl)amino)piperidine-1-carbonyl)-4-methylpent-2-enenitrile]
42.3 | 2.3 |  |  | C=CC(=O)N1CC[C@@H](C)[C@@H](Nc2nc(Nc3cnn(C4CC4)c3)nc3[nH]nc(SC)c23)C1 [Example 135, 1-((3R,4R)-3-((6-((1-cyclopropyl-1H-pyrazol-4-yl)amino)-3-(methylthio)-1H-pyrazolo[3,4-d]pyrimidin-4-yl)amino)-4-methylpiperidin-1-yl)prop-2-en-1-one]
